Patent US20230406883A1, “COMPOUNDS AND THEIR USE IN TREATMENT OF TACHYKININ RECEPTOR MEDIATED DISORDERS” (Embark Biotech ApS, priority 2020, published 2023)
pEC50: −log10 of the molar value. Where “and” joins values, the source holds several entries; their conditions need not be identical. Equal values may be shown once. Numbered stars: 1 amine (or outer) side, 2 acyl side, 3 side chain; on linkers, the order of the positions; unused ones are H or OH. Square brackets hold non-standard residues; d marks the D form. Peptide text beside a SMILES is read from it. * marks the point of attachment. C18 diacid = O=C(O)CCCCCCCCCCCCCCCCC(=O)*; γGlu = O=C(O)[C@H](CCC(=O)[*:2])N[*:1]; NMeL = CN[C@@H](CC(C)C)C(=O)O; hSer = N[C@@H](CCO)C(=O)O; Nle = CCCC[C@H](N)C(=O)O; AEEA = NCCOCCOCC(=O)O

Tests used:
hNK2R [1] = biological target: T1, hNK2R (Homo sapiens, UniProt P21452); test: IP3 assay (inositol trisphosphate, 3H-myoinositol) in transiently transfected COS-7 cells; format: cell-based; conditions: COS-7 cells; for pEC50: 0.2% ovalbumin buffer; for hNK2R, IP3 Efficacy: figure legends: percent of 10^-6 M NKA
T1 construct: host or cells: COS-7
T1 sequence (P21452 1-398): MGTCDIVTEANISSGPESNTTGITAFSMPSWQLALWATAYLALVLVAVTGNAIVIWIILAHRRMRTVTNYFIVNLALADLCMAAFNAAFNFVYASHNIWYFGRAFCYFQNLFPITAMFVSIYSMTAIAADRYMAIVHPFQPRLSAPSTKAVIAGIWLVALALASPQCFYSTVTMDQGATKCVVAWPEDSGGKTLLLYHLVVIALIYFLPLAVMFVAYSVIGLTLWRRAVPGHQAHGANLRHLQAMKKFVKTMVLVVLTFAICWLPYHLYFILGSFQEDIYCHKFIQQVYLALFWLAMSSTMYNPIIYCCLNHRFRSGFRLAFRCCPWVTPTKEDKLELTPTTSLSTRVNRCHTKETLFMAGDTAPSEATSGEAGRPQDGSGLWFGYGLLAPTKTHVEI
How it was run: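 COS-7 cells were transiently transfected with receptor plasmid and labelled with ³H-myo-inositol. Cells were lysed in formic acid, and ³H-inositol phosphates were captured on SPA YSI beads and counted.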

[2] = Energy expenditure and weight loss pharmacodynamics in DIO mice; format: in vivo; set-up: Energy expenditure efficacy (change relative to vehicle control) / Weight loss efficacy (change relative to vehicle control): concentration or dose not given beside the values; conditions: for Energy expenditure EC50 / Energy expenditure efficacy (change relative to vehicle control) / Weight loss EC50 / Weight loss efficacy (change relative to vehicle control): daily s.c. injections for nine days
Protocol: Indirect calorimetry was used to evaluate the ability of individual peptide analogues to dose-dependently increase energy expenditure (EE) we used metabolic cages and indirect calorimetry measured by the Promethion system. To this end, oxygen consumption was used as a surrogate measure for EE. Substrate preference (fat or carbohydrate) was evaluated using the respiratory exchange ratio (RER). In parallel, behavioral information such as walking distance and water and food intake were recorded.
Prior to experimentation, DIO mice were transferred to habituation cages for at least 10 days (5 days outside and at least 5 days in the Sable Systems gas analyzer module) to acclimatize. For all in vivo compound tests for EE evaluation, mice received subcutaneous injections between 2 and 4 pm.
Energy expenditure and weight loss pharmacodynamics: To evaluate the ability of individual peptide analogues to dose-dependently increase EE by indirect calorimetry in DIO mice. Body weights were monitored from beginning of habituation until end of experiment. After habituation, mice were treated with daily injections of NKA(4-10) analogues at four different doses or vehicle by daily subcutaneous injections for nine days.
EE increase over vehicle was calculated as percent of mean oxygen consumption over a 30-hour period after injection. Prior to injection peptide analogues were dissolved and diluted in in vivo buffer. In order to take into account, the different half-lives for the compounds tested, the doses for each compound were calculated based on the given compound's individual pk-profiles.

hNK2R [3] = biological target: T1, hNK2R; test: 3H-NKA competitive binding on transfected COS-7 cells; conditions: competition with 3H-NKA, 4 h at 4 C
Protocol: Assays were carried out using COS-7 cells transiently transfected by calcium phosphate transfection with a vector pcDNA3.1(+) encoding one of the indicated receptors (Genscript). Briefly, DNA mixed with CaCl2 (2 M) and TE-buffer (10 mM Tris-HCl, 1 mM EDTA, pH 7.5) was dropwise added to 2×HBS (50 mM HEPES, 280 mM NaCl, 1.5 mM NaH2PO4, pH 7.2) and incubated for 45 min at room temperature (22±2° C.). The mixture and a final concentration of 100 μM Chloroquine were added to the cells and left to incubate for 5 hours at 37° C. under standard cell culture conditions (10% CO2) before changing medium to fresh maintenance medium.
The ^3H-NKA binding assay measures peptide-receptor binding by a competitive principle of receptor binding between radioactively labelled (3H) NKA (tracer) and synthesized peptide ligands on live cells expressing the receptor of interest. Assay solutions used: TKR buffer (50 mM Tris/HCl pH 7.5, 5 mM MnCl2, and 150 mM NaCl), wash buffer (TKR buffer+0.2% w/v OvAlb), binding buffer (wash buffer+0.1 mg/ml Bacitracin), and tracer solution (binding buffer+˜15000 cpm/well ^3H-tracer). The assay was performed on ice the day after transfection.
Briefly, maintenance medium was aspirated, and plates were washed ×1 in cold wash buffer before adding 100 μl cold binding buffer and placing at 4° C. to let plates cool. The cold plates were added indicated peptides (ligand) immediately followed by addition of cold tracer solution (˜15000 cpm/well). Plates were immediately moved to 4° C. and incubated for 4 hours. After incubation, binding was stopped by wash ×2 with cold wash buffer before adding 225 μl Ultima Gold XR. Plates were shaken at medium speed for approximately 30 min and left overnight at room temperature before counting the plates in a MicroBeta plate counter (Perkin Elmer).

| SMILES | pEC50 (hNK2R [1]) | hNK2R, IP3 Efficacy (hNK2R [1]) | Energy expenditure EC50 [2] [nmol/kg] | Energy expenditure efficacy (change relative to vehicle control) [2] [%] | Weight loss EC50 [2] [nmol/kg] | Weight loss efficacy (change relative to vehicle control) [2] [%] | pEC50 (hNK2R [3]) | Reduced weight loss efficacy compared to compound 304, 344 and 383 [2] |
| --- | --- | --- | --- | --- | --- | --- | --- | --- |
| CCCC[C@H](NC(=O)[C@H](CC(C)C)N(C)C(=O)CNC(=O)[C@@H](NC(=O)[C@H](Cc1ccccc1)NC(=O)[C@H](CCCCN)NC(=O)[C@H](CC(=O)O)NC(=O)COCCOCCNC(=O)COCCOCCNC(=O)CC[C@H](NC(=O)CCCCCCCCCCCCCCCCC(=O)O)C(=O)O)C(C)C)C(N)=O [compound 304, *Asp;Lys;Phe;Val;Gly;NmLeu;Nle;NH2] | 8.68 and 7.96 to 9.00 | 90% and 100% and 80-90% | 94 | 11 | 16 | 12 | 7.60 |  |
| CCCC[C@H](NC(=O)[C@H](CC(C)C)N(C)C(=O)CNC(=O)[C@@H](NC(=O)[C@H](Cc1ccc(O)cc1)NC(=O)[C@H](CCCCN)NC(=O)[C@H](CC(=O)O)NC(=O)COCCOCCNC(=O)COCCOCCNC(=O)CC[C@H](NC(=O)CCCCCCCCCCCCCCCCC(=O)O)C(=O)O)C(C)C)C(N)=O [compound 305, *Asp;Lys;Tyr;Val;Gly;NmLeu;Nle;NH2] ({C18 diacid-γGlu-AEEA-AEEA}-DKYVG[NMeL][Nle]-NH2) | 8.43 and 8.40 and 7.89 to 8.66 |  | 34 | 11 | 69 | 6 | 7.68 and 6.68 and ~7.00 | approximately 50% |
| COCC[C@H](NC(=O)[C@H](CC(C)C)N(C)C(=O)CNC(=O)[C@@H](NC(=O)[C@H](Cc1ccccc1)NC(=O)[C@H](CCCCN)NC(=O)[C@H](CC(=O)O)NC(=O)COCCOCCNC(=O)COCCOCCNC(=O)CC[C@H](NC(=O)CCCCCCCCCCCCCCCCC(=O)O)C(=O)O)[C@@H](C)O)C(N)=O [compound 383, *Asp;Lys;Phe;Thr;Gly;NmLeu;Metox;NH2] ({C18 diacid-γGlu-AEEA-AEEA}-DKFTG[NMeL][hSer](Me)-NH2) | 8.80 | 95% | 110 | 11 | 83 | 11 | 7.96 |  |
| COCC[C@H](NC(=O)[C@H](CC(C)C)N(C)C(=O)CNC(=O)[C@@H](NC(=O)[C@H](Cc1ccc(O)cc1)NC(=O)[C@H](CCCCN)NC(=O)[C@H](CC(=O)O)NC(=O)COCCOCCNC(=O)COCCOCCNC(=O)CC[C@H](NC(=O)CCCCCCCCCCCCCCCCC(=O)O)C(=O)O)C(C)C)C(N)=O [compound 344, *Asp;Lys;Tyr;Val;Gly;NmLeu;Metox;NH2] ({C18 diacid-γGlu-AEEA-AEEA}-DKYVG[NMeL][hSer](Me)-NH2) | 8.66 and 8.51 and 8.30 and 8.49 | 90% and 100% and 110% | 13 | 12 | 130 | 10 | 7.03 and 7.05 |  |
